Measured values as given in patent publication US20220177446A1, “ALKYNE COMPOUNDS AS IRAK INHIBITORS, PREPARATION METHODS AND MEDICINAL USES THEREOF” (Eternity Bioscience Inc., priority 2020, published 2022).
Where two headings read alike, the source gives them in different places.

Experiments:
IRAK4 = molecular target: T1, IRAK4 (Homo sapiens, UniProt Q9NWZ3); assay: IRAK4 Human PBMC TNFα Cell Based Assay (AlphaLISA); conditions: TNFα measured
T1 construct: host or cells: human peripheral blood mononuclear cells (PBMCs)
T1 sequence (Q9NWZ3 1-460): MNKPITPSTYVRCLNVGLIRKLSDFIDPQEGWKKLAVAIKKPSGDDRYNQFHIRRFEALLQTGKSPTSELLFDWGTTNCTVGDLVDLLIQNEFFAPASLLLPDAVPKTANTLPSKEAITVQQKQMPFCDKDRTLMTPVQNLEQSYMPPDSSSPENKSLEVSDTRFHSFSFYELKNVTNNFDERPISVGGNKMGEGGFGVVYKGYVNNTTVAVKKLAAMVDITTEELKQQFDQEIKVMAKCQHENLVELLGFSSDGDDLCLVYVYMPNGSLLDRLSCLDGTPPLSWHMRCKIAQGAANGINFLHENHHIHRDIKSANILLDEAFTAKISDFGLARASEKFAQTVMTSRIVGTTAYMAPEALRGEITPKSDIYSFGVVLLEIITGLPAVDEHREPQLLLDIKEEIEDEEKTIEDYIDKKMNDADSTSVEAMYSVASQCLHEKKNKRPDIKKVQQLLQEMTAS
Experimental: In this assay, serially diluted compounds were incubated with 1×10^4 human peripheral blood mononuclear cells (PBMCs) from STEMCELL (Cat #70025.1) per well of 384-well plate (Fisher Scientific; 50-905-2761) and cultured with TexMACS medium (Miltenyi, Cat #130-097-196), stimulated by R848 (0.5 μM) or IL-1β (10 ng/ml). Plates were covered with lids and incubated for 4 h (R848, Fisher Scientific, Cat #NC9801605) or 24 h (IL-1β, Fisher Scientific, Cat #ENRIL1BI) at 37° C. in a humidified tissue-culture incubator. After a brief centrifugation at 1000 rpm for 5 minutes, 5 μl of culture medium was used for the measurement of the TNFα amount using TNFα (human) AlphaLISA Detection Kit (PerkinElmer, Cat #AL208C) according to manufacturer's protocol. A biotinylated anti-TNFα antibody binds to the Streptavidin-coated Donor beads while another anti-TNFα antibody is conjugated to AlphaLISA Acceptor beads. In the presence of the TNFα, the beads come into close proximity. The excitation of the Donor beads causes the release of singlet oxygen molecules that triggers a cascade of energy transfer in the Acceptor beads, resulting in a sharp peak of light emission at 615 nm. AlphaLISA assay plates were read using PHERAstar. Percentage of inhibition was calculated as below:
(§1) % inhibition=(1−(Reading(Sample)−Reading(Negative Control))/(Reading(Positive Control)−Reading(Negative Control)))×100%
The 0% inhibition value comes from the Reading of Positive Control wells having 0 nM compound. The 100% inhibition value comes from the Reading of Negative Control wells having no R848 or IL-1β.

CYP2D6 = molecular target: T2, CYP2D6 (Homo sapiens, UniProt P10635); assay: In vitro study for inhibiting cytochrome P450 (CYP) 2D6 using human liver microsomes; assay type: in vitro ADME; conditions: human liver microsomes 0.1 mg/ml, probe substrate dextromethorphan 4 μM, 30 min at 37° C.; read-out: IC50 of inhibition on CYP2D6
T2 construct: tissue Corning Co, LTD; host or cells: human liver microsomes
T2 sequence (P10635 whole entry): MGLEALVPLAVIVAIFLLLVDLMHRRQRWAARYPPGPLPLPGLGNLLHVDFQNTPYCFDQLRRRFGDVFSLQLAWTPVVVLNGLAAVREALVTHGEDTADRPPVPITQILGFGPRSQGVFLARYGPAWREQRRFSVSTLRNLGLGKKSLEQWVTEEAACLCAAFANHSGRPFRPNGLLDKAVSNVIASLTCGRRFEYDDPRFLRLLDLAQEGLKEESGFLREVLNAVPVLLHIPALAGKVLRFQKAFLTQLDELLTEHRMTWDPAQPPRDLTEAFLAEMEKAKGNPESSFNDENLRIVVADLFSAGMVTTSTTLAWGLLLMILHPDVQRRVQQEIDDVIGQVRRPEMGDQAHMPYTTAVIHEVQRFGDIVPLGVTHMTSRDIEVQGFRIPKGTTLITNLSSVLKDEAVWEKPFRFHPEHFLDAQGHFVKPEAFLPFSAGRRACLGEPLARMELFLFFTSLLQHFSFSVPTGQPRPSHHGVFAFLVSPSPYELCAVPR
Experimental: Potassium phosphate buffer ([…] from Sangon Biotech. Dilute 20×PBS to 100 mM PBS buffer. The stock solutions of NADPH was 5 mM and the final concentration in the incubation system was 1 mM. The stock solution of MgCl2 were 7.5 mM and t the final concentration in the incubation system was 3 mM.
1.1 Preparation of probe substrate solution: The stock solutions of probe substrates of dextromethorphan (Sigma Cat No. D9684) was prepared by using DMSO and the final concentration in incubation system was 4 μM.
1.2 Preparation of selective inhibitors solution: The 30 mM stock solutions of inhibitor of CYP isoforms of Quinidine (Sigma, Q0750) was prepared by using DMSO and the final concentration in incubation system were 30, 10, 3, 1, 0.3, 0.03, 0.003 μM.
1.3 Preparation of test compound 5 and 6 solution: The 30 mM test compound 5 and 6 solutions were prepared by using DMSO and the final concentration in incubation system were 30, 10, 3, 1, 0.3, 0.03, 0.003 μM.
1.4 Human liver microsomes (HLM) were purchased by Corning Co, LTD. Diluted the HLM into 0.25 mg/ml and the final concentration was 0.1 mg/ml.
Added 20 μL working solutions of test compound 5 or 6 or selective inhibitors into a 96-well plate. Then added 40 μL of the HLM working solution and 20 μL of the substrate working solution. […] Samples are now ready for LC/MS/MS analysis.

[1] = molecular target: T3, full length human IRAK4 protein (Homo sapiens, UniProt Q9NWZ3); assay: IRAK4 Biochemical Assay (Promega ADP-Glo IRAK4 Kinase Enzyme System); conditions: 3 nM enzyme, 250 μM ATP; for IC50: 2 μM MBP, 60 min at room temperature; for IRAK4 Biochemical Assay Max Inhibition (%): maximum inhibition
T3 construct: Purified full length human IRAK4 protein; purchased Signal Chem I12-10G-125
T3 sequence (Q9NWZ3 1-460): T1 sequence (Q9NWZ3 1-460)
Experimental: For the routine compound screening, an IRAK4 kinase assay was performed as follows using Promega ADP-Glo IRAK4 Kinase Enzyme System (Promega, Cat #2198-AD). Purified full length human IRAK4 protein (Signal Chem; Cat #I12-10G-125) was diluted to a concentration 6 nM in assay buffer (25 mM MOPS, pH 7.2, 12.5 mM β-glycerol-phosphate, 25 mM MgCl2, 5 mM EGTA, 2 mM EDTA, 0.0025% Brij-35, add 0.25 mM DTT to Kinase Assay Buffer prior to use) containing IRAK4 inhibitor at 2× the final concentration in 0.4% DMSO. The reaction was performed in PerkinElmer Proxiplate-384 plus white plate (Fisher Scientific, Cat #50-905-2761) and started by the addition of an equal volume of the assay buffer containing 4 μM native swine myelin basic protein (MBP) and 500 μM ATP to achieve a final concentration of 3 nM enzyme, 2 μM MBP, 250 μM ATP, 1× compound, and 0.2% DMSO. The kinase reaction was allowed to run for 60 min at room temperature (25-27° C.), then 5 μL of ADP-Glo was added to the reaction in each well followed by 40 minutes-incubation at RT. To detect converted […], 10 μL Detection Buffer was added into each well and Incubate at RT in dark for 30 minutes. Finally, luminescence was read using Tecan with 1000 ms of integration time. The luminescent signal positively correlates with ADP amount and kinase activity. Data was analyzed by GraphPad Prism and IC50 was calculated using function log(inhibitor) vs. response—Variable slope (four parameters). Percentage of inhibition was calculated as below:
as §1
The 0% inhibition value comes from the Reading of Positive Control wells having 0 nM compound. The 100% inhibition value comes from the Reading of Negative Control wells having no IRAK4 kinase.

[2] = human PBMCs stimulated by IL-1β (10 ng/ml), 24 h, read-out: IRAK4 PBMC AlphaLISA IL-1β (IC50)
[3] = human PBMCs stimulated by R848 (0.5 μM), 4 h, read-out: IRAK4 PBMC AlphaLISA R848 (IC50)

| IC50 (IRAK4; [2]) [nM] | IC50 (IRAK4; [3]) [nM] | IC50 (CYP2D6) [nM] | IC50 [1] [nM] | IRAK4 Biochemical Assay Max Inhibition (%) [1] [%] | Structure (SMILES) |
| --- | --- | --- | --- | --- | --- |
| 1.3 | 1 | 13700 | 14.5 | 100.0 | CC[C@@H]1[C@H](F)C(=O)N[C@@H]1COc1ncc(C#CCOC)c2cc(C(N)=O)c(OC)cc12 [Example 6, 1-(((2S,3S,4S)-3-ethyl-4-fluoro-5-oxopyrrolidin-2-yl)methoxy)-7-methoxy-4-(3-methoxyprop-1-yn-1-yl)isoquinoline-6-carboxamide] |
| 2.2 | 0.7 | > 30000 | 6.2 | 100.0 | CC[C@@H]1[C@H](F)C(=O)N[C@@H]1COc1ncc(C#CCN(C)C)c2cc(C(N)=O)c(OC)cc12 [Example 5, 4-(3-(dimethylamino)prop-1-yn-1-yl)-1-(((2S,3S,4S)-3-ethyl-4-fluoro-5-oxopyrrolidin-2-yl)methoxy)-7-methoxyisoquinoline-6-carboxamide] |
